According to patent publication US7767854B2, “N-substituted phenylacetamide derivative and pharmaceutical composition containing the same” (Dainippon Sumitomo Pharma Co., Ltd., priority 2005, dated 2010):

Tests used:
[1] = system: Slc: Hartley male guinea-pigs; test: Skin sensitization test (Adjuvant and Patch Test, allergenic potency); type: in vivo, guinea-pig; settings: 1% solution patches, FCA pre-treatment, observed 24 and 48 hours after initiation
Description: Experiment 3. Skin Sensitization Test (Evaluation of Allergenic Potency)
The purpose of the present experiment is to investigate if each administered compound of the invention may induce allergic contact dermatitis. In detail, the test was carried out using Freund's complete adjuvant (FCA) according to the Adjuvant and Patch Test [Sato, et al., Contact Dermatitis, 7, 225-237 (1981)], which is described in “Description of Guideline on Nonclinical Studies of Drugs (Iyakuhin Hirinshou-shiken Guideline Kaisetsu), Chapter 8, P.72-76, Skin sensitization test” [edited by the Ministry of Health and Welfare, Pharmaceutical Affairs Bureau, Yakuji-Nippou-sha (1997)]. Slc: Hartley male guinea-pigs were used for the test. As a test compound, each the compound of the invention and DNCB (1-chloro-2,4-dinitrobenzene) as a positive control drug were dissolved in 70% ethanol/water solution and were administered to the animals. The 70% ethanol/water solution was used as vehicle solvent (reference).
In detail, after FCA emulsion was intradermally administered around the shaved back part of the guinea-pig as a pre-treatment, each patch containing 1% test compound solution or reference (solvent) solution was closedly attached once a day for consecutive 3 days in total (Primary Sensitization). On 7th day after the Primary Sensitization, 10% sodium lauryl sulfate ointment was openly applied at the same part for 24 hours, and then each patch containing 1% test compound solution or reference (solvent) solution was closedly attached again for 48 hours (Second Sensitization). 14 days after the Second Sensitization treatment, each test compound (maximum concentration: 1%) was applied for 24 hours using patch in the same manner (initiation). 24 and 48 hours after the application, the reaction (erythema, edema) on the applied skin part was observed and was scored (0-3) based on the criteria of Magnusson and Kligman [J. Invest. Dermatol., 52, 268-276 (1969)], and then the degree of skin sensitization induced by each of compound was evaluated.

male Std: Wistar rats = test: Pain test by plantar thermal stimuli (plantar test); type: in vivo; settings: Rattus norvegicus, 4 h, 50 μl of 0.03% (W/V) solution i.pl. into right hind-paw; 4 hours after administration; cut-off 25 seconds; read-out: % MPE (percent maximum possible effect, withdrawal latency)
Description: Experiment 1: Pain Test by Plantar Thermal Stimuli (Plantar Test)
In the present experiment, the analgesic effect of the compounds of the invention was evaluated by the measurements of withdrawal latency to noxious thermal stimuli, according to the methods of Hargreaves, et al., [Pain, 32, 77-88 (1988)] and Field, et al., [J. Pharmacol. Exp. Ther., 282, 1242-1246 (1997)].
In detail, the experiment was carried out using male Std: Wistar rats (4 rats/group; body weight, 170-220 g) and a plantar test device (Model 7370, Ugo Basile) with infrared beam as a heat source. The rat was put into an experimental cage that is an acrylic box whose bottom is made of glass and was habituated therein. Then, the infrared beam was radiated to the plantar surface of right hind-paw thereof through the floor glass, and the withdrawal latency was measured every 5 minutes, 3 times. The intension of the infrared beam was adjusted so that the pre-drug administration latency was about 10 seconds. The cut-off time was set at 25 seconds in order to prevent a paw burn. The average of the latencies was calculated, and then it was defined as the value of the pre-drug administration latency of the test compound.
Next day, 50 μl of each solution of the test compounds [the compounds of the invention, the compounds of the comparative Examples and capsaicin (Sigma, U.S.A.)] or 50 μl of vehicle solvent (reference) was given to a right hind-paw of the rat by intraplantar injection (i. pl.) using a micro-syringe. The test compound was dissolved in a saline solution containing 10% Tween 80 (Sigma, U.S.A) and 10% ethanol to give a 0.03% (W/V) solution. The saline solution containing 10% Tween 80 and 10% ethanol was used as reference. Four hours after i.pl. administration of each the test compound or the reference to the rats, the experiment mentioned above was carried out, and then the post-drug administration latency was measured. The analgesic effects thereof were calculated with the following formula, which was known as a percent maximum possible effect (% MPE). % MPE=[(the value of post-drug latency−the value of pre-drug latency)/(25*−the value of pre-drug latency)]×100 *: cut-off time

female CBA/JN mice = test: Skin sensitization test (Local Lymph Node Assay with BrdU); type: in vivo, mouse; settings: 1 and 3% solutions in DMF on both auricles, 3 days
Description: Experiment 4: Skin Sensitization Test (Local Lymph Node Assay)
The purpose of the present experiment is to investigate if each administered compound of the invention can induce allergic contact dermatitis. In detail, the skin sensitization effect of the compounds of the invention was examined using BrdU (bromodeoxyuridine) by LLNA (Local Lymph Node Assay).
In more detail, the test was carried out according to the method by Suda, A. et al. (Local lymph node assay with non-radioisotope alternative endpoints. J. Toxicol. Sci., 27(3):205-218, 2002). Namely, the compounds of the invention were dissolved in DMF (N,N-dimethylformamide) to prepare 1 and 3% solutions, which were applied to both auricles of female CBA/JN mice aged 9 weeks for consecutive 3 days (1st day to 3rd day)(25 μl/one-side ear, once a day)
As positive control drugs, DNCB (dinitrochlorobenzene, a potently sensitizing drug) and HCA (α-hexylcinnamaldehyde, a weakly sensitizing drug) were used. After the final application was finished (on 3rd day), ALZET Osmotic Pump containing 100 μl of 200 mg/mL BrdU (releasing rate: 0.5 μl/hour) was implanted into the ventral skin under pentobarbital anesthesia, and BrdU was exposed sustainedly. On 9th day from starting day to apply the compounds of the invention, the animals were euthanized by cervical dislocation, and parotid lymph nodes of both their ears were taken out. The nodes were weighed and homogenized in PBS to prepare a single cell suspension which was measured by a blood test device: ADVIA (Bayer) to count the number of the cells. Next, the cells were immunofluorescently stained with FITC-labeled anti-BrdU antibody using a BrdU Flow Kit (BD Biosciences), which were measured and analyzed using a flow cytometer: FACS Calibur (Becton Dickinson) to give BrdU-positive cell percentage. And then, the BrdU-positive cell percentage was multiplied by the number of the node cells to give the number of the BrdU-positive cells. Additionally, on each parameter, the average value for the test compound group was divided by the average value for the reference (solvent) group to give a stimulation Index (SI). We judged that the compound had skin sensitization activity when the SI of BrdU-positive cell number was 2 or more, in principle.

| SMILES | skin sensitization (erythema, edema score) [1] | change in vivo at 300 µg/mL (male Std: Wistar rats) [%] | skin sensitization (SI of BrdU-positive cell number) (female CBA/JN mice) |
| --- | --- | --- | --- |
| CCCCC1=CCC(NC(=O)Cc2ccc(O)c(OC)c2)CC1 (single isomer, unassigned; (+)) [Example 43, (+)-N-(4-butyl-3-cyclohexenyl)-2-(4-hydroxy-3-methoxyphenyl)acetamide] | no skin sensitization | – | – |
| CCCC=C1CCC(NC(=O)Cc2ccc(O)c(OC)c2)CC1 (single isomer, unassigned; (+)) [Example 45, (+)-N-(4-butylidenecyclohexyl)-2-(4-hydroxy-3-methoxyphenyl)acetamide] | no skin sensitization | 73.9 | – |
| CCCCC1=CCC(NC(=O)Cc2ccc(O)c(OC)c2)CC1 (single isomer, unassigned; (-)) [Example 44, (−)-N-(4-butyl-3-cyclohexenyl)-2-(4-hydroxy-3-methoxyphenyl)acetamide] | no skin sensitization | – | – |
| CCCC=C1CCC(NC(=O)Cc2ccc(O)c(OC)c2)CC1 (single isomer, unassigned; (-)) [Example 46, (−)-N-(4-butylidenecyclohexyl)-2-(4-hydroxy-3-methoxyphenyl)acetamide] | no skin sensitization | – | – |
| CCCCC1=CCC(NC(=O)Cc2ccc(O)c(OC)c2)CC1 (stereo not drawn) [Example 1, N-(4-butyl-3-cyclohexenyl)-2-(4-hydroxy-3-methoxyphenyl)acetamide] | no skin sensitization | 69.9 | weak skin sensitization |
| CCCCC1CCC(NC(=O)Cc2ccc(O)c(OC)c2)CC1 (stereo not drawn) [Example 2, N-(4-butylcyclohexyl)-2-(4-hydroxy-3-methoxyphenyl)acetamide] | no skin sensitization | 81.4 | weak skin sensitization |
| CCCCC[C@H]1CC[C@@H](NC(=O)Cc2ccc(O)c(OC)c2)CC1 [Example 8] | – | 88.4 | weak skin sensitization |
| CCCC=C1CCC(NC(=O)Cc2ccc(O)c(OC)c2)CC1 (stereo not drawn) [Example 10, N-(4-butylidenecyclohexyl)-2-(4-hydroxy-3-methoxyphenyl)acetamide] | – | 89.4 | weak skin sensitization |
| CC/C=C\[C@H]1CC[C@H](NC(=O)Cc2ccc(O)c(OC)c2)CC1 [Example 16] | no skin sensitization | 94.1 | weak skin sensitization |
| C/C=C\[C@H]1CC[C@H](NC(=O)Cc2ccc(O)c(OC)c2)CC1 [Example 22] | no skin sensitization | 54.7 | weak skin sensitization |
| COc1cc(CC(=O)N[C@H]2CC[C@H](CCC(C)C)CC2)ccc1O [Example 26, 2-(4-hydroxy-3-methoxyphenyl)-N-[trans-4-(3-methylbutyl)cyclohexyl]acetamide] | – | 96.3 | weak skin sensitization |
| CCCCCO[C@H]1CC[C@H](NC(=O)Cc2ccc(O)c(OC)c2)CC1 [Example 36] | – | 50.5 | weak skin sensitization |
| COc1cc(CC(=O)N[C@H]2CC[C@H](CC=C(C)C)CC2)ccc1O [Example 42, 2-(4-hydroxy-3-methoxyphenyl)-N-[trans-4-(3-methyl-2-butenyl)cyclohexyl]acetamide] | – | 85 | weak skin sensitization |
